In patent publication US20230339896A1, “HPK1 INHIBITORS AND USES THEREOF” (QILU REGOR THERAPEUTICS INC., priority 2020, published 2023):

assay: Metabolic stability in liver microsomes, mouse (MLM); type: in vitro ADME, CD-1 mouse; conditions: 0.5 mg/mL protein, 1 µM compound, NADPH
Experimental: This assay is for determining the stability of test compound in liver microsomes. The study will be conducted in accordance with International Bioethical Standards “World Medical Association Declaration of
Human, Sprague Dawley Rat, CD-1 mouse, Beagle Dog and Cynomolgus Monkey Liver Microsomes samples purchased from BD Gentest or RILD.
0.1 M Potassium phosphate buffer, pH 7.4: • Buffer A: 1.0 L of 0.1 M monobasic Potassium Phosphate buffer containing 1.0 mM EDTA • Buffer B: 1.0 L of 0.1 M Dibasic Potassium Phosphate buffer containing 1.0 mM EDTA • Buffer C (K-phosphate buffer): 0.1 M Potassium Phosphate buffer, 1.0 mM EDTA, pH 7.4 by titrating 700 mL of buffer B with buffer A while monitoring the pH meter
• Prepare 3× test compound or positive control solutions: 500 µM spiking solution: add 10 µL of 10 mM DMSO stock solution into 190 µL ACN. • 1.5 µM spiking solution in microsomes (0.75 mg/mL): add 1.5 µL of 500 µM spiking solution and 18.75 µL of 20 mg/mL liver microsomes into 479.75 µL of K-phosphate buffer.
Add 30 µL of 1.5 µM spiking solution containing 0.75 mg/ml microsomes solution to the wells designated for 45 min, 30 min, 15 min, 5 min and 0 min. Pre-incubate the plate at 37° C. for 5 minutes.
Add 15 µL of NADPH stock solution (6 mM) to all of the wells, and start timing. Immediately, add 135 µL of ACN containing IS to the wells designated as Time 0.
At 5 min, 15 min, 30 min and 45 min, add 135 µL of ACN containing IS to the wells, respectively.
After quenching, centrifuge the reaction mixtures at 3220 x g for 10 min.
Transfer 50 µL of the supernatant from each well into a 96-well sample plate containing 50 µL of ultra pure water (Millipore) for LC/MS analysis.
The % parent remaining at each incubation time point is calculated by comparing to the peak area ratio (compound peak area/internal standard peak area) at T0 (0 minute incubation). The ln peak area ratio is plotted against time and the gradient of the line is determined. The half-life and metabolism of compounds is calculated based upon a natural log linear regression of the relative peak areas vs time. The half-life and intrinsic clearance (Clint) in microsomes are calculated using the equations below. • In Vitro T ½ (min) = 0.693/Elimination rate of constant (k) • Clint (µL/min/mg of microsomal protein) = (0.693 / In Vitro T ½) (Incubation Volume/ mg of microsomes)

SMILES | Metabolic Stability T½ (min), MLM
CN1CCc2cc(F)c(Nc3ncc(Cl)c(N4C[C@](C)(CC(=O)O)c5ccccc54)n3)cc2C1 (single isomer, unassigned) [Example 5, (R)-2-[1-[5-chloro-2-[(6-fluoro-2-methyl-3,4-dihydro-1H-isoquinolin-7-yl)amino]pyrimidin-4-yl]-3-methyl-indolin-3-yl]acetic acid or (S)-2-[1-[5-chloro-2-[(6-fluoro-2-methyl-3,4-dihydro-1H-isoquinolin-7-yl)amino]pyrimidin-4-yl]-3-methyl-indolin-3-yl]acetic acid] | MLM: 86 min

same assay, conditions: CD-1, mouse, liver microsomes, pH 7.4, 0.5 mg/mL protein, 1 µM compound, NADPH, read-out: Metabolic Stability T½ (min), MLM

SMILES | half-life at 1 µM
COc1cc2c(cc1Nc1ncc(Cl)c(N3CC(C)(CC(=O)O)c4ccccc43)n1)CN(C)CC2 (single isomer, unassigned) [Example 2, (R)-2-(1-(5-chloro-2-((6-methoxy-2-methyl-1,2,3,4-tetrahydroisoquinolin-7-yl)amino)pyrimidin-4-yl)-3-methylindolin-3-yl)acetic acid or (S)-2-(1-(5-chloro-2-((6-methoxy-2-methyl-1,2,3,4-tetrahydroisoquinolin-7-yl)amino)pyrimidin-4-yl)-3-methylindolin-3-yl)acetic acid] | 101 min
COc1cc2c(cc1Nc1ncc(Cl)c(N3CC(C(=O)O)c4ccccc43)n1)CN(C)CC2 (stereo not shown) [Compound 7, reference compound] | > 5000 min
COc1cc2c(cc1Nc1ncc(Cl)c(N3CC(CC(=O)O)c4ccccc43)n1)CN(C)CC2 (stereo not shown) [Compound 8, reference compound] | 145 min
COc1cc2c(cc1Nc1ncc(Cl)c(N3CC(C)(CC(=O)O)c4ccc(F)cc43)n1)CN(C)CC2 (stereo not shown) [Compound 10, reference compound] | 46.1 min
COc1cc2c(cc1Nc1ncc(Cl)c(N3CC(C)(CC(=O)O)c4ccccc43)n1)CN(C)CC2 (stereo not shown) [Example 1, 2-(1-(5-chloro-2-((6-methoxy-2-methyl-1,2,3,4-tetrahydroisoquinolin-7-yl)amino)pyrimidin-4-yl)-3-methylindolin-3-yl)acetic acid] | 84 min
CN1CCc2cc(F)c(Nc3ncc(Cl)c(N4CC(C)(CC(=O)O)c5ccccc54)n3)cc2C1 (stereo not shown) [Example 4, 2-(1-(5-chloro-2-((6-fluoro-2-methyl-1,2,3,4-tetrahydroisoquinolin-7-yl)amino)pyrimidin-4-yl)-3-methylindolin-3-yl)acetic acid] | 79.4 min
